{
  "source": "patent EP4458412A1",
  "about": "“NOVEL PHOSPHOANTIGEN PRODRUG COMPOUND AND USE THEREOF” (University College Cardiff Consultants, Ltd., priority 2023, dated 2024)",
  "key": {"[1]": {"tested_on": "CD8^+ T cells", "experiment": "Activation of CD8+ T cells in PBMC overnight cultures (CD69/CD25, flow cytometry)", "assay_type": "cell-based, human", "conditions": "for concentration without CD8+ T cell activation relative to Vγ9/Vδ2 T-cell activation EC50: 1 µM versus EC50; for activation of CD8+ T cells: up to a concentration of 1 µM, overnight PBMC culture", "description": "(§1) To assess the activation of Vy9/V62 T cells, PBMCs were seeded into U-bottom tissue culture-treated 96-well plates at a cell density of 500,000 cells per well. […] The cells were incubated at 37°C/5%CO2 overnight, and stained by flow cytometry for the following markers: viability (Zombie Aqua 1:400), CD3 (BV421 1:100), CD8 (BV650 1:200), Vγ9 (PEcy5 1:400), V62 (APC 1:200), CD69 (PE 1:25), CD25 (FITC 1:100). The samples were acquired via LSRFortessa X20 (BD Biosciences), and the data obtained were analysed using FlowJo v10 and GraphPad Prism v9 software.\nLike peripheral blood γδ T-cells, peripheral blood CD8^+ T-cells lack appreciable levels of surface CD69 or CD25 under steady state conditions, but upon T-cell receptor (TCR) stimulation upregulate both T-cell activation markers within 72 hours. PAg responsive CD8 T-cells were then distinguished by TCR CD8 expression and assessed for the upregulation CD69 and CD25."}, "[2]": {"tested_on": "human Vγ9/Vδ2^+ T cells", "experiment": "Activation of human Vγ9/Vδ2+ T cells in PBMCs (CD69/CD25 upregulation, flow cytometry)", "assay_type": "cell-based", "conditions": "for activation of Vγ9/Vδ2 T cells at the highest concentration studied: 100 µM compared with 10 µM; for activation of Vγ9/Vδ2 T cells (rank in words): across the two series 9a-d and 14a-d, in vitro; for EC50: PBMCs incubated overnight, CD69+ CD25+ Vγ9/Vδ2 T cells, 10pM to 100µM", "description": "General: Healthy donor peripheral blood mononuclear cells (PBMCs) were harvested as described in Morita et al. 2007. In particular, blood was obtained in the presence of a mixture of heparin and ethylene diamino tetra acetic acid (EDTA) as anticoagulants (2 U/ml heparin, 1.5 mM EDTA) from consented healthy donors (approved by the NRES Committee West Midlands-Solihull Ethical Board; REC reference 14/WM/1254). Blood was then layered on a density gradient medium, lymphoprep (Stem Cell Technologies) and Peripheral blood mononuclear cells (PBMCs) were purified by gradient centrifugation. The cells were washed 2 times with Phosphate Buffered Saline (PBS), then resuspended in RPMI-1640 media supplemented with 2 mM L-glutamine, 25 mM HEPES, 1% sodium pyruvate, 50 µg/ml penicillin/streptomycin (Invitrogen) and 10% foetal calf serum.\nas §1\nPeripheral blood γδ T-cells lack appreciable levels of surface CD69 or CD25 under steady state conditions, but T-cell receptor (TCR) stimulation upregulates both T-cell activation markers within 72 hours. PAg responsive Vy9/V62 T-cells were then distinguished by TCR Yγ9 and V62 expression and assessed for the upregulation CD69 and CD25. […]"}, "[3]": {"tested_on": "T24 urinary bladder carcinoma cells", "experiment": "Europium-based (DELFIA) cytotoxicity assay: lysis of drug-sensitized T24 cells by expanded Vγ9/Vδ2 T cells", "assay_type": "cell-based, Human", "conditions": "10 nM ProPAgen, 2 h pretreatment, effector:target 80:1, compared with 10 µM Zoledronate", "description": "Human T24 urinary bladder carcinoma cell lines were cultured in PBS for 2 h at 37°C/5% CO2 without ProPAgens (i.e. untreated), containing 10 µM zoledronate (i.e. the clinically used small molecule drug) or the indicated HMBP phosphonodiamidate ProPAgens of the present invention, i.e. ProPAgen 9d at a concentration of 10nM, and ProPAgen 14d at a concentration of 10nM. A positive control for cell death (target cells incubated with 10% v/v DELFIA lysis buffer) and media-only treated control (no drug) were also included. The cells were then washed 3 times at 600 x g for 5 min in PBS to remove any excess drug and incubated in PBS with BATDA labelling agent (used at 1µl per ml) for 20 min at 37°C as before.\nIn the meantime, ex vivo expanded Vy9/V62 T cells, i.e. Vy9/V62 T cells that have been expanded with 5µM Zoledronate and 100U/ml IL2 over a period of 14 days, were thawed, counted and resuspended to a cell concentration of 4 x 10^6 cells/ml. […]\nThe level of killing of T24 cells was then measured via time-resolved fluorescence using a PHERAstar microplate reader (BMG Labtech). Specific lysis (% killing of T24 cells) was calculated as follows: [(experimental release - spontaneous release)/(maximal release - spontaneous release)] x 100. The data were processed and analyzed using Microsoft Excel and GraphPad Prism v9 software. […]"}, "[4]": {"experiment": "Human serum stability monitored by 31P NMR", "assay_type": "in vitro ADME", "conditions": "37 °C, 7.5 h", "description": "This experiment was carried out as previously reported in Mehellou et al. 2020 and Slusarczyk, M.; Ferrari, V.; Serpi, M.; Gönczy, B.; Balzarini, J.; McGuigan, C; Symmetrical Diamidates as a Class of Phosphate Prodrugs to Deliver the 5'-Monophosphate Forms of Anticancer Nucleoside Analogues; ChemMedChem 2018, 13, 2305-2316 (hereinafter \"McGuigan et al. 2018\"), as well as Slusarczyk, M.; Lopez, M. H.; Balzarini, J.; Mason, M.; Jiang, W. G.; Blagden, S.; Thompson, E.; Ghazaly, E.; McGuigan, C. Application of ProTide technology to gemcitabine: a successful approach to overcome the key cancer resistance mechanisms leads to a new agent (NUC-1031) in clinical development. J. Med. Chem. 2014, 57, 1531-1542 (hereinafter \"McGuigan et al. 2014\").\nBriefly, 5.0 mg of the phosphonodiamidate ProPAgen 9b was dissolved in a mixture of 0.05 mL of DMSO and 0.15 mL D2O. After recording the first ^31P NMR data, 0.3 mL human serum (Merck Life Sciences) was added and monitored by NMR. The experiment was run on NMR ^31P mode and scanned every half an hour for 7.5 h. The incubation temperature was 37°C. Recorded data were processed and analysed with Bruker Topspin 2.1 software.\nProPAgen 9b was incubated with human serum at 37 °C for 7.5 h and monitored by ^31P NMR spectroscopy. […]"}, "[5]": {"biological_target": "T1, carboxypeptidase Y (Saccharomyces cerevisiae, UniProt P00729)", "T1 sequence (P00729 112-532)": "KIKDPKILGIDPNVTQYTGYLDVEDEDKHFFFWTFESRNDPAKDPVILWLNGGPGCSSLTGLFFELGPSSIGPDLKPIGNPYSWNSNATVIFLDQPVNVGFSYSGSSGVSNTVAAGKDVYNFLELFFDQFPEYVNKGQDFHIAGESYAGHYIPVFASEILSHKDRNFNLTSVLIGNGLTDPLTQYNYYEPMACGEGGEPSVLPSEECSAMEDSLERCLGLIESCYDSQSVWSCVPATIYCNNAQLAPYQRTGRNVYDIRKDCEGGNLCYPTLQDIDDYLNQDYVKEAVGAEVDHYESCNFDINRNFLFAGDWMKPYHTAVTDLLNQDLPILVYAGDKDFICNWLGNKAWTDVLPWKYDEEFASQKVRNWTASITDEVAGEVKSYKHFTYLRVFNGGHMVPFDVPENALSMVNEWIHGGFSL", "experiment": "Carboxypeptidase Y assay (in vitro metabolism, 31P NMR)", "assay_type": "in vitro ADME", "conditions": "recombinant carboxypeptidase Y, 37 °C", "description": "The in vitro metabolism of the phosphonodiamidate ProPAgens according to the present invention was investigated in a carboxypeptidase Y assay.\nThe carboxypeptidase Y assay was carried out as previously reported by Mehellou et al. 2020, McGuigan et al. 2018 and McGuigan et al. 2014. 5.0 mg of the phosphonodiamidate ProPAgen 9b was dissolved in 0.2 mL of acetone, and 0.4 mL of Trizma buffer (pH 7.4) was added followed by 0.5 mg carboxypeptidase Y in 0.2 ml Trizma buffer (pH 7.4). The phosphonodiamidate ProPAgen 9b was incubated with recombinant carboxypeptidase Y at 37 °C and monitored the reaction by ^31P-NMR for 12 h. Recorded data were processed and analysed with Bruker Topspin 2.1 software."}, "[6]": {"tested_on": "Vγ9/Vδ2 T cells", "conditions": "previously reported potencies (Hsiao 2014; Reichenberg 2003); cited from earlier work"}},
  "data": [
    {"smiles": "C/C(=C\\CC(F)(F)P(=O)(N[C@@H](C)C(=O)OCc1ccccc1)N[C@@H](C)C(=O)OCc1ccccc1)CO", "note": "[ProPAgen 9d, Dibenzyl 2,2'-((((E)-1,1-difluoro-5-hydroxy-4-methylpent-3-en-1-yl)phosphoryl)-bis(azanediyl))(2S,2'S)-dipropionate]", "values": [
      {"measurement": "concentration without CD8+ T cell activation relative to Vγ9/Vδ2 T-cell activation EC50", "setting": "[1]", "value": "approx. 100,000 times"},
      {"measurement": "activation of CD8+ T cells", "setting": "[1]", "value": "did not exhibit activation"},
      {"measurement": "activation of Vγ9/Vδ2 T cells at the highest concentration studied", "setting": "[2]", "value": "less than that achieved with 10 µM"},
      {"measurement": "activation of Vγ9/Vδ2 T cells (rank in words)", "setting": "[2]", "value": "most potent activation"},
      {"measurement": "sensitizing effects (specific lysis of T24 cells by Vγ9/Vδ2 T-cells)", "setting": "[3]", "value": "much more potent"}
    ]},
    {"smiles": "COC(=O)[C@H](C)NP(=O)(N[C@@H](C)C(=O)OC)C(F)(F)C/C=C(\\C)CO", "note": "[ProPAgen 9a, Dimethyl 2,2'-((((E)-1,1-difluoro-5-hydroxy-4-methylpent-3-en-1-yl)phosphor-yl)bis(azanediyl))(2S,2'S)-dipropionate]", "values": [
      {"measurement": "EC50", "setting": "[2]", "value": 191, "unit": "nM"}
    ]},
    {"smiles": "C/C(=C\\CC(F)(F)P(=O)(N[C@@H](C)C(=O)OC(C)C)N[C@@H](C)C(=O)OC(C)C)CO", "note": "[ProPAgen 9b, Diisopropyl 2,2'-((((E)-1,1-difluoro-5-hydroxy-4-methylpent-3-en-1-yl)phosphor-yl)bis-(azanediyl))(2S,2'S)-dipropionate]", "values": [
      {"measurement": "EC50", "setting": "[2]; Homo sapiens, T-cell", "value": 167, "unit": "nM"},
      {"measurement": "half-life", "setting": "[4]", "value": "> 7.5", "unit": "h"},
      {"measurement": "time to appearance of three new 31P NMR peaks (metabolite 17)", "setting": "[5]; Trizma buffer pH 7.4", "value": "≤ 0.5", "unit": "h"},
      {"measurement": "31P NMR peaks of parent prodrug after incubation", "setting": "[5]; within 6.5 h", "value": "those of 9b were the minor"}
    ]},
    {"smiles": "O=P(O)(O)C(O)(Cn1ccnc1)P(=O)(O)O", "note": "[zoledronate, reference compound]", "values": [
      {"measurement": "EC50", "setting": "[2]; Homo sapiens, T-cell", "value": 18500, "unit": "nM"},
      {"measurement": "EC50", "setting": "[6]", "value": "3 to 500", "unit": "nM"}
    ]},
    {"smiles": "C/C(=C\\CCP(=O)(N[C@@H](C)C(=O)OC(C)C)N[C@@H](C)C(=O)OC(C)C)CO", "note": "[ProPAgen 14b, Diisopropyl 2,2'-((((E)-5-hydroxy-4-methylpent-3-en-1-yl)phosphoryl)bis(az-anediyl))-(2S,2'S)-dipropionate]", "values": [
      {"measurement": "EC50", "setting": "[2]", "value": 87, "unit": "nM"}
    ]},
    {"smiles": "C/C(=C\\CC(F)(F)P(=O)(N[C@@H](C)C(=O)OC(C)(C)C)N[C@@H](C)C(=O)OC(C)(C)C)CO", "note": "[ProPAgen 9c, Di-tert-butyl 2,2'-((((E)-1,1-difluoro-5-hydroxy-4-methylpent-3-en-1-yl)phosphoryl)bis(azanediyl))(2S,2'S)-dipropionate]", "values": [
      {"measurement": "EC50", "setting": "[2]", "value": 1500, "unit": "nM"}
    ]},
    {"smiles": "C/C(=C\\CCP(=O)(N[C@@H](C)C(=O)OCc1ccccc1)N[C@@H](C)C(=O)OCc1ccccc1)CO", "note": "[ProPAgen 14d, Dibenzyl 2,2'-((((E)-5-hydroxy-4-methylpent-3-en-1-yl)phosphoryl)bis(azane-diyl))-(2S, 2'S)-dipropionate]", "values": [
      {"measurement": "concentration without CD8+ T cell activation relative to Vγ9/Vδ2 T-cell activation EC50", "setting": "[1]", "value": "approx. 100,000 times"},
      {"measurement": "activation of CD8+ T cells", "setting": "[1]", "value": "did not exhibit activation"},
      {"measurement": "activation of Vγ9/Vδ2 T cells at the highest concentration studied", "setting": "[2]", "value": "less than that achieved with 10 µM"},
      {"measurement": "activation of Vγ9/Vδ2 T cells (rank in words)", "setting": "[2]", "value": "most potent activation"},
      {"measurement": "sensitizing effects (specific lysis of T24 cells by Vγ9/Vδ2 T-cells)", "setting": "[3]", "value": "much more potent"}
    ]},
    {"smiles": "C/C(=C\\CCP(=O)(N[C@@H](C)C(=O)OC(C)(C)C)N[C@@H](C)C(=O)OC(C)(C)C)CO", "note": "[ProPAgen 14c, Di-tert-butyl 2,2'-((((E)-5-hydroxy-4-methylpent-3-en-1-yl)phosphoryl)bis(az-ane-diyl))-(2S,2'S)-dipropionate]", "values": [
      {"measurement": "EC50", "setting": "[2]", "value": 6100, "unit": "nM"}
    ]},
    {"smiles": "C/C(=C\\COP(=O)(O)OP(=O)(O)O)CO", "note": "[HMBPP, (E)-4-hydroxy-3-methylbut-2-enyl pyrophosphate, reference compound]", "values": [
      {"measurement": "EC50", "setting": "[2]", "value": 181, "unit": "nM"},
      {"measurement": "EC50", "setting": "[6]", "value": "0.06 to 0.5", "unit": "nM"}
    ]}
  ]
}
